From ChEMBL document CHEMBL1201862, “PubChem BioAssay data set” (2004)
Values joined by “and” are separate entries in the source; they are usually repeats but may differ in a detail not shown here. Equal values may be shown once. Active and inactive are the calls of the source.

Columns and labels:
[1] = biological target: 5-hydroxytryptamine receptor 2A (Mus musculus, UniProt P35363); format: functional, cell-based;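 further: CHO-K1 cells with tagged receptor and beta-arrestin; agonist potency measured as compound-induced activation of the receptor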
[2] = biological target: Mu-type opioid receptor (Homo sapiens, UniProt P35372); format: functional, cell-based;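 further: U2OS cells with beta-arrestin recruitment to OPRM1 by beta-gal complementation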
[3] = biological target: Paired box protein Pax-8 (Homo sapiens, UniProt Q06710); assay: PAX8 transcriptional activity inhibition in RMG-I – RMG-I cells, luciferase, cherry-pick, dose response (AID 687027); format: functional, cell-based;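 further: luciferase reporter driven by Pax8 target thyroperoxidase promoter measured by SteadyGlo luminescence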
Chain of Paired box protein Pax-8 (Q06710 whole entry): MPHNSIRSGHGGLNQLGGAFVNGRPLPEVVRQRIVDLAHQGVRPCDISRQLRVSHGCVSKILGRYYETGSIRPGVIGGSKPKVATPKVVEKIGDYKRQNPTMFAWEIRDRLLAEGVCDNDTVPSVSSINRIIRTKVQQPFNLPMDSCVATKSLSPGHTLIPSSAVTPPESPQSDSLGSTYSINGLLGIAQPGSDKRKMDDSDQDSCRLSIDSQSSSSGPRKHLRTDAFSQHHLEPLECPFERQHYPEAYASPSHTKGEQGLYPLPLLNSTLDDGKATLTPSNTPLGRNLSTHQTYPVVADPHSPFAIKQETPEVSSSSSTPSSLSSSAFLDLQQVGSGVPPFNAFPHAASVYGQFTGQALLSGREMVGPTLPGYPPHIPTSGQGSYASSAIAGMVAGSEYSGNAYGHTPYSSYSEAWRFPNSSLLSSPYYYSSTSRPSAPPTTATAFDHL

[4] = CMV-driven luciferase expression suppression in HEK293 – cell-based, luminescence, dry powder, counter-screen for Pax8 inhibitor project, dose response (AID 743020); format: functional
[5] = viability loss in HepG2 hepatoma cells – cell-based, cherry-picks, set 5, cytotoxicity control, dose response (AID 1053118); format: functional
[6] = biological target: T1, Beta-2 adrenergic receptor (Homo sapiens, UniProt P07550); assay: ADRB2 activation measured by internalization – cell-based, FAP fluorogen, flow cytometry, cherry pick 1, dose response (AID 588763); format: functional
T1 sequence (P07550 whole entry): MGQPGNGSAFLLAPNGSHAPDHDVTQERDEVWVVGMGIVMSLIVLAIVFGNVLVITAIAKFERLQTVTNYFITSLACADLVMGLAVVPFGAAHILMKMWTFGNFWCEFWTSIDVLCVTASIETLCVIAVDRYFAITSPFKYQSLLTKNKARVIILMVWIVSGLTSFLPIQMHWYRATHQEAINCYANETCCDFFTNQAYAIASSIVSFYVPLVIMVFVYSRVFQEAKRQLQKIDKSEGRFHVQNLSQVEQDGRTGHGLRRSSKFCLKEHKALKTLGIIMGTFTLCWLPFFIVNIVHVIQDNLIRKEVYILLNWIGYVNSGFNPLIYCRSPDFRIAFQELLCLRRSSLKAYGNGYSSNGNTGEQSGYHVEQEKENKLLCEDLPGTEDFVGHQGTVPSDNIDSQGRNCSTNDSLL

[7] = biological target: T1, Beta-2 adrenergic receptor; assay: Dose response for HTS for Beta-2AR agonists via FAP method from Powderset1.; format: functional
[8] = general mammalian cell viability loss – inhibitor set, cherry-pick, set 2, cytotoxicity control for miR-122 modulator project, dose response (AID 720697); format: functional, cell-based
[9] = cells; format: functional, cell-based; conditions: HEK-CNG
[10] = biological target: Galanin receptor type 3 (Homo sapiens, UniProt O60755); assay: Fluorescence-based cell-based primary high throughput dose response assay to identify antagonists of the Galanin Receptor 3 (GalR3).; format: functional
Chain of Galanin receptor type 3 (O60755 whole entry): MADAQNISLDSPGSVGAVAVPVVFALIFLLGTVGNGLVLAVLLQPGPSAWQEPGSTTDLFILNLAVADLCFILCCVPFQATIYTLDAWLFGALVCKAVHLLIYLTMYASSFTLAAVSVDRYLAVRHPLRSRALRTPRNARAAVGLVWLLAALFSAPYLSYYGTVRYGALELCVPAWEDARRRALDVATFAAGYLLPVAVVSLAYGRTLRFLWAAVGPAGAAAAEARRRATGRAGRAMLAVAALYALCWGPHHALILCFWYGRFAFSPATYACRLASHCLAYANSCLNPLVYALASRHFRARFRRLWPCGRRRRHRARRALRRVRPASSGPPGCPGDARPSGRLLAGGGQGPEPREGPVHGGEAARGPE

[11] = biological target: Broad substrate specificity ATP-binding cassette transporter ABCG2 (Homo sapiens, UniProt Q9UNQ0); assay: blockers of JC-1 export by ABCG2 – Ig-MXP3 cells, flow cytometry, dose response (AID 1690); format: functional
Chain of Broad substrate specificity ATP-binding cassette transporter ABCG2 (Q9UNQ0 whole entry): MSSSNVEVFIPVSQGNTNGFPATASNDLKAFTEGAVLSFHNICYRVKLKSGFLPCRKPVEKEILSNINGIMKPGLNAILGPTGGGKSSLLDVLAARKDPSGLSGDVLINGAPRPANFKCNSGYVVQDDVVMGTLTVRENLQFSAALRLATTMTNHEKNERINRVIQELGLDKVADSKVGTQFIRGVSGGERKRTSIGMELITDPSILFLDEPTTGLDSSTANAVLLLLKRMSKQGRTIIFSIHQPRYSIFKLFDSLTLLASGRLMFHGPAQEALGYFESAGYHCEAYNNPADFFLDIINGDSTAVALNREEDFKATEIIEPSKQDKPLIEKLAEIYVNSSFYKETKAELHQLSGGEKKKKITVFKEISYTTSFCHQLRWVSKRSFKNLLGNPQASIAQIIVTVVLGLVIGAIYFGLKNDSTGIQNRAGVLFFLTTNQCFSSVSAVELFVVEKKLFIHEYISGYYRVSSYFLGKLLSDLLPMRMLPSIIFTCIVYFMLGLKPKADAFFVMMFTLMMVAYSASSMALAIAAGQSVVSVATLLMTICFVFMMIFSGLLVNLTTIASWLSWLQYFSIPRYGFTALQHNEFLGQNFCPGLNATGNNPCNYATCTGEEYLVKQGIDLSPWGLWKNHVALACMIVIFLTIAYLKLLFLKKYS

[12] = biological target: T2, Polyadenylate-binding protein 1 (Homo sapiens, UniProt P11940); assay: MLLE binding blockers, Cy5 peptide tracer – biochemical, fluorescence polarization, Cy5-PAM2 peptide, secondary, miRNA deadenylation inhibitor project, dose response (AID 602260); format: functional; conditions: read-out: IC50_Mean
T2 sequence (P11940 whole entry, the tested form may be a part): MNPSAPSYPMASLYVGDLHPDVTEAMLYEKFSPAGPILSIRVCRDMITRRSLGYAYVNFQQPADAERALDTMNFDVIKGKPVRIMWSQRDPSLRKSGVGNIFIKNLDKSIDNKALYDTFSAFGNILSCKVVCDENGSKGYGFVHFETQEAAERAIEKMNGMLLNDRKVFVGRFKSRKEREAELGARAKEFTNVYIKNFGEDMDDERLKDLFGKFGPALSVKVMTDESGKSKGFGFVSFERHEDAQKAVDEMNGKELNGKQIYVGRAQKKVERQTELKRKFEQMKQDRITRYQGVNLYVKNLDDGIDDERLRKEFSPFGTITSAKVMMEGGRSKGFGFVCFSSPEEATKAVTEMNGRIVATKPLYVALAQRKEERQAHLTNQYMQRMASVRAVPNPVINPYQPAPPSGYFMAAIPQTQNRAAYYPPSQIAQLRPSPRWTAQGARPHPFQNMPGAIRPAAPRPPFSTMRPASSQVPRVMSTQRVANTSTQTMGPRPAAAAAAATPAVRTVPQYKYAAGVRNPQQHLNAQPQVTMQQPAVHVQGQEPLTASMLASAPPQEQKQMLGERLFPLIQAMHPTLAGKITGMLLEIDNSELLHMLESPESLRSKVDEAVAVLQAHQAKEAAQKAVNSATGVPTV

[13] = biological target: T2, Polyadenylate-binding protein 1; assay: MLLE domain peptide-binding blockers, IC50 – biochemical, fluorescence polarization, FITC-PAM2 peptide, dose response (AID 602259); format: functional; conditions: read-out: IC50_Mean
[14] = biological target: Long-chain-fatty-acid--AMP ligase FadD28 (Mycobacterium tuberculosis, UniProt P9WQ59); assay: Fluorescence polarization aasay to screen for inhibitors that compete for the binding of FadD28 to a bisubstrate Measured in Biochemical System Using Plate Reader - 2147-01_Inhibitor_Dose_CherryPick_Activity.; format: functional, Mycobacterium tuberculosis H37Rv
[15] = biological target: Botulinum neurotoxin type F (Clostridium botulinum, UniProt P30996); assay: High-throughput multiplex microsphere dose response for inhibitors of toxin protease, specifically Botulinum neurotoxin light chain F protease, compounds from Cherry Pick 02.; format: functional; conditions: read-out: EC50_MICROM
Chain of Botulinum neurotoxin type F (P30996 1-436 limits assumed): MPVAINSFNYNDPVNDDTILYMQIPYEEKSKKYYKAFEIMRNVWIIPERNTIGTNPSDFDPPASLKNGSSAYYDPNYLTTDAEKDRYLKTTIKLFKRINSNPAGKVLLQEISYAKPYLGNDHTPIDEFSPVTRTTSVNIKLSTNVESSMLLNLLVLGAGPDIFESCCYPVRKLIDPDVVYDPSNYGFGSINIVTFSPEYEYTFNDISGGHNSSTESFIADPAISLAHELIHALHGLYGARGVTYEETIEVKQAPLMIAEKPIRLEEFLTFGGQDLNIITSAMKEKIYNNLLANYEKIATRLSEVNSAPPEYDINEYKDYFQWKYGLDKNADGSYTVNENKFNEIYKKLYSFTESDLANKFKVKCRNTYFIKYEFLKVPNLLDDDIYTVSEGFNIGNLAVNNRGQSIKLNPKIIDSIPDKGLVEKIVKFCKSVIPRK

[16] = biological target: T1, Beta-2 adrenergic receptor; assay: Dose response for HTS for Beta-2AR agonists via FAP method from Powderset3.; format: functional
[17] = biological target: T3, Trace amine-associated receptor 1 (Homo sapiens, UniProt Q96RJ0); assay: Fluorescence-based cell-based high throughput dose response assay to identify antagonists of the human trace amine associated receptor 1 (TAAR1).; format: functional
T3 sequence (Q96RJ0 whole entry): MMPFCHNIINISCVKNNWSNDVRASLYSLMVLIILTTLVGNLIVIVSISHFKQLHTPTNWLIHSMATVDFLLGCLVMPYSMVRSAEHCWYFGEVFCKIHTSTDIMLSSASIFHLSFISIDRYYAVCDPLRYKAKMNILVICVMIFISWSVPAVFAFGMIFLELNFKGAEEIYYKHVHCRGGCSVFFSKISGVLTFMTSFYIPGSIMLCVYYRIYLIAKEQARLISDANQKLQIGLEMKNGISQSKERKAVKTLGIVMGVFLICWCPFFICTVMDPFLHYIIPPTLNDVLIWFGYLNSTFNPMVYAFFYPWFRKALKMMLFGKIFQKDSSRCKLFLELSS

[18] = Counterscreen for […] of the human trace amine associated receptor 1 (TAAR1): Fluorescence-based cell-based high throughput dose response assay to identify nonselective Ga16 agonists.; format: functional
[19] = biological target: T3, Trace amine-associated receptor 1; assay: Counterscreen for antagonists of the human trace amine associated receptor 1 (hTAAR1): Fluorescence-based cell-based high throughput dose response assay to identify TAAR1 Agonists.; format: functional
[20] = Counterscreen for antagonists of the human trace amine associated receptor 1 (hTAAR1): Fluorescence-based cell-based high throughput dose response assay to identify nonselective Ga16 antagonists.; format: functional
[21] = biological target: T3, Trace amine-associated receptor 1; assay: Fluorescence-based cell-based high throughput dose response assay to identify agonists of the human trace amine associated receptor 1 (TAAR1).; format: functional
[22] = cells; format: functional, cell-based
[23] = biological target: T3, Trace amine-associated receptor 1; assay: Counterscreen for agonists of the human trace amine associated receptor 1 (hTAAR1): Fluorescence-based cell-based high throughput dose response assay to identify hTAAR1 agonist that also desensitize TAAR1 receptor response.; format: functional
[24] = cells; format: functional, cell-based; remark: listed apart in the source
[25] = rescue of ΔF508 CFTR function, airway epithelium – human bronchial epithelial cells, plate reader, cherry-pick, two tests, dose response (AID 743267); format: functional, cell-based
[26] = biological target: Beta Lactamase (Pseudomonas aeruginosa, UniProt Q932Y6);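 further: confirmatory high-throughput screen measuring VIM-2 metallo-beta-lactamase inhibition by epi-absorbance in dose response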
Chain of Beta Lactamase (Q932Y6 whole entry): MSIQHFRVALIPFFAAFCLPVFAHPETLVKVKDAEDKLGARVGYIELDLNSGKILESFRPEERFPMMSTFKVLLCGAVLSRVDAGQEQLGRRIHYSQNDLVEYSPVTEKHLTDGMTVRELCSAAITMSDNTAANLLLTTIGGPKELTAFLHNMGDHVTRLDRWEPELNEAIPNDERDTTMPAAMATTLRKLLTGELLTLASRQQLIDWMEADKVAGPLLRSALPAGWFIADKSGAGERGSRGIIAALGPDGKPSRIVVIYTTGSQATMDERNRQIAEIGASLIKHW

[27] = biological target: ORF 73 (Human herpesvirus 8, UniProt O40947); assay: KSHV LANA DNA-binding disruption – biochemical, fluorescence polarization, cherry-picked samples, dose response (AID 504725); parameters: species or system Human gammaherpesvirus 8;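 further: fluorescence polarization of a labeled DNA duplex reporting LANA DNA binding; potency is for inhibitors that block LANA binding to the DNA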
Chain of ORF 73 (O40947 whole entry): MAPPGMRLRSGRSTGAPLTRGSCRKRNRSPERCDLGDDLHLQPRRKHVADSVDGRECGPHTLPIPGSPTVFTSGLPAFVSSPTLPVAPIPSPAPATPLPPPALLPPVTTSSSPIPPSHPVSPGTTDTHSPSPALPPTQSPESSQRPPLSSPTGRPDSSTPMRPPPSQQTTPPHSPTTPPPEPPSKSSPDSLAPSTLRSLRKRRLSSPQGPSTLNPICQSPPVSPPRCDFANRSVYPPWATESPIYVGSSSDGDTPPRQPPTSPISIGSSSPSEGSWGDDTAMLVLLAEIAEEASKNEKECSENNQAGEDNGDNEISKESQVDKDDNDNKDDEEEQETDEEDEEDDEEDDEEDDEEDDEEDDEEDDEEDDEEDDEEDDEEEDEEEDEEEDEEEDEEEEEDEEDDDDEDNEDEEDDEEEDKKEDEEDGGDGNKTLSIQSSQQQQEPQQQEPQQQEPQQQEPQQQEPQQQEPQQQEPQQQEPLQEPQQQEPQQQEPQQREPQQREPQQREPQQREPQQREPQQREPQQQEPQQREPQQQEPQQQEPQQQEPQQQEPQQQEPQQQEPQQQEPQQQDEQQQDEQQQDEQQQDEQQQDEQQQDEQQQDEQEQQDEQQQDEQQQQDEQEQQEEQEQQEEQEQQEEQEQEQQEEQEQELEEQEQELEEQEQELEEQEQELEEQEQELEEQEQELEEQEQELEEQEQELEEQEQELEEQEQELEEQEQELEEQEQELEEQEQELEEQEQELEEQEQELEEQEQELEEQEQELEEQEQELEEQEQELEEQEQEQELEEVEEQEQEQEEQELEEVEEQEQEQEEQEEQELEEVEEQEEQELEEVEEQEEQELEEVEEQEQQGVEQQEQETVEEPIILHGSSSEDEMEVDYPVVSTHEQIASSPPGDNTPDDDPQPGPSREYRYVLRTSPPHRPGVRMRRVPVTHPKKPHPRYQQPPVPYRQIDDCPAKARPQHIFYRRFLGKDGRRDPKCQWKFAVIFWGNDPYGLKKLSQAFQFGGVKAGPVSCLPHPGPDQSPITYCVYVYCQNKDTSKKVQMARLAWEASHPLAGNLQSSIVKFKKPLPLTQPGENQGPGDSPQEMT

[28] = biological target: Beta-lactamase (Pseudomonas aeruginosa, UniProt Q79MP6);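 further: biochemical dose-response test of metallo-beta-lactamase enzyme inhibition, read out by epi-absorbance; purified recombinant IMP-1 metallo-beta-lactamase with nitrocefin as substrate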
Chain of Beta-lactamase (Pseudomonas aeruginosa, UniProt Q79MP6) (Q79MP6 whole entry): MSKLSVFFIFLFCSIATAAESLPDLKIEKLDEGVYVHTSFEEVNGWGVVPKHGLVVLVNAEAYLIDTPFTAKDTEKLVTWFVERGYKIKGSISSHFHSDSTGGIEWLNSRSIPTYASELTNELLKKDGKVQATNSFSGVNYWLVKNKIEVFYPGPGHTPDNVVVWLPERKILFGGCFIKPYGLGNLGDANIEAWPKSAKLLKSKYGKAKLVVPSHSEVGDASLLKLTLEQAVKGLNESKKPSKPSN

[29] = biological target: Beta-lactamase (Salmonella choleraesuis (strain SC-B67), UniProt Q5J463)
[30] = biological target: T4, Tyrosine-protein phosphatase non-receptor type 22 (Homo sapiens, UniProt Q9Y2R2); assay: PTPN22 enzyme inhibitors – biochemical, fluorescence, LYP catalytic domain, selectivity assay for LMPTP inhibitor project, dose response (AID 652006); format: functional; conditions: read-out: IC50_Mean
T4 sequence (Q9Y2R2 whole entry): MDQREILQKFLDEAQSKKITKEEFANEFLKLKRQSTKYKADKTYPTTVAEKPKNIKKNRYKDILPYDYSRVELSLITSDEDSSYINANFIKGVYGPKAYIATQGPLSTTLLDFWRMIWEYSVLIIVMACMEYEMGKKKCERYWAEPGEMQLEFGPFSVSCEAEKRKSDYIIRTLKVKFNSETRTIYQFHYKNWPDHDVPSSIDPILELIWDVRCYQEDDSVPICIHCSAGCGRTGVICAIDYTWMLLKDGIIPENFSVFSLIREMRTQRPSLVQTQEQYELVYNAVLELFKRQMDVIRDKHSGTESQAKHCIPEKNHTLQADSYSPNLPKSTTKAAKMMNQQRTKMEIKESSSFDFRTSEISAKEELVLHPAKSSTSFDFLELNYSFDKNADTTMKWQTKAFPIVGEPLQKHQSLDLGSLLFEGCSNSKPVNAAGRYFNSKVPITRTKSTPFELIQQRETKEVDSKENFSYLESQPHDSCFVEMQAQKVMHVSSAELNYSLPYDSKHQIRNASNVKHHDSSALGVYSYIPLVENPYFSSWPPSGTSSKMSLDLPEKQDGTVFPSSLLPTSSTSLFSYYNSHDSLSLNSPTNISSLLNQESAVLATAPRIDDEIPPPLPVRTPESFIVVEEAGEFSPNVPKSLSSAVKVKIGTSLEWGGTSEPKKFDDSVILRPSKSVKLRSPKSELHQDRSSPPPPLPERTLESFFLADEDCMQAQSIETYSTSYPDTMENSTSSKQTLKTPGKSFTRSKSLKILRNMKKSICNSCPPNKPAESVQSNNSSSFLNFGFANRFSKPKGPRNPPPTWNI

[31] = biological target: T5, DNA repair protein RAD52 homolog (Homo sapiens, UniProt P43351); format: functional, biochemical
T5 sequence (P43351 whole entry): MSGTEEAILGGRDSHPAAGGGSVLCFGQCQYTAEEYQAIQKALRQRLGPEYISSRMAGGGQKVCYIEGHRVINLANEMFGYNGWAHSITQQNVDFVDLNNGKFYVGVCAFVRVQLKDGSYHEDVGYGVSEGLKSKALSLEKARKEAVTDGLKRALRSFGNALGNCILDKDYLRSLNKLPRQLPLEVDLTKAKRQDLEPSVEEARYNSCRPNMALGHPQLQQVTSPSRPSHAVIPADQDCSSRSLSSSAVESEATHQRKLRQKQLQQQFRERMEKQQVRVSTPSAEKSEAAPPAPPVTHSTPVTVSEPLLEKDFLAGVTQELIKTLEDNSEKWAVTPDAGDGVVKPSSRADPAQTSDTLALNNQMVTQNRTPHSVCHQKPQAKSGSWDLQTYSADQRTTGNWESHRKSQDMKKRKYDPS

[32] = biological target: T6, Low molecular weight phosphotyrosine protein phosphatase (Homo sapiens, UniProt P24666); format: functional; conditions: read-out: IC50_Mean;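 further: Dose-response confirmation assay measuring inhibition of LMPTP enzyme activity by fluorescence intensity read-out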
T6 sequence (P24666 whole entry): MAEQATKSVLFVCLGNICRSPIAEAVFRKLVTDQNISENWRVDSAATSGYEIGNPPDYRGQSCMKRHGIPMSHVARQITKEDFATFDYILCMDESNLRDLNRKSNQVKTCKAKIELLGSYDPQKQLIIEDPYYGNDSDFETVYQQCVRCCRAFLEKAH

[33] = biological target: Matrix metalloproteinase-14 (Homo sapiens, UniProt P50281); assay: Dose Response confirmation of uHTS hits for a small molecule inhibitors of MT1-MMP activation in a fluorescence assay set 2.; format: functional
[34] = biological target: Palmitoyl-protein thioesterase ABHD10, mitochondrial (Mus musculus, UniProt Q6PE15); assay: Late stage assay provider results from the probe development effort to identify inhibitors of PME-1: fluorescence-based dose response biochemical gel-based competitive Activity-Based Protein Profiling (ABPP) inhibition of ABHD10 Set 1.; format: functional
Chain of Palmitoyl-protein thioesterase ABHD10, mitochondrial (Q6PE15 whole entry): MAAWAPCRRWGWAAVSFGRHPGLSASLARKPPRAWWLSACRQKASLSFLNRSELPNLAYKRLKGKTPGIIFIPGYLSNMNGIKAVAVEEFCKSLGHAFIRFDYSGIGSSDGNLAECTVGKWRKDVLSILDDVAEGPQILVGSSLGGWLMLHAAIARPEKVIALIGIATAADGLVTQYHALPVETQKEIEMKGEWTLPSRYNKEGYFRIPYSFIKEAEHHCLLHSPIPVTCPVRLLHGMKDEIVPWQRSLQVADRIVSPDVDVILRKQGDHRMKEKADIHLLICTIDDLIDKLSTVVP

[35] = intracellular Trypanosoma cruzi inhibitors in host cells – cell-based, plate reader, cherry-pick samples, set 3, dose response (AID 651818); format: functional;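 further: compounds incubated with infected cells for about four days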
[36] = mouse fibroblast viability loss – cell-based, cherry-pick samples, set 2, cytotoxicity control for T. cruzi growth inhibitor project, dose response (AID 651817); format: functional; conditions: NIH3T3
[37] = biological target: T7, Sentrin-specific protease 8 (Homo sapiens, UniProt Q96LD8); format: functional
T7 sequence (Q96LD8 whole entry): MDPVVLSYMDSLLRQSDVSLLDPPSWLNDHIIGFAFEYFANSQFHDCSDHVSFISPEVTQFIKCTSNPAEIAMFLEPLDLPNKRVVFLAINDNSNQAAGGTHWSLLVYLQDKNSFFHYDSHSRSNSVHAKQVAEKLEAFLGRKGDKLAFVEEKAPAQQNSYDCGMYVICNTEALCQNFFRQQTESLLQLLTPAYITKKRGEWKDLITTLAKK

[38] = biological target: T7, Sentrin-specific protease 8; format: functional; remark: listed apart in the source
[39] = cytotoxicity in HEK293 background cells – cell-based, dry powder, set 2, counter-screen for EBV LMP1 inhibitor project, dose response (AID 624374); format: functional

Clc1ccc(CN2CCN(c3ncccn3)CC2)cc1Cl
EC50 [1]: 0.424 µM (active)
EC50 [2]: 92.5 µM (inactive)

Cc1ccc(S(=O)(=O)CCC(=O)c2ccc(F)cc2)cc1
AC50 [3]: 11.3 µM (active)
AC50 [4]: 27.9 µM (active)

Cc1ccc(N(CC(=O)NCc2ccco2)S(=O)(=O)c2ccccc2)cc1
AC50 [5]: > 52 µM (inactive)

Cc1ccc(S(=O)(=O)N(C)CC(=O)N2CCN(c3ccccn3)CC2)cc1
EC50 [6]: 167 nM (active) and 60.7 nM (active)
EC50 [7]: 0.002 µM (active)

Cc1nc(O)c(C#N)cc1-c1ccccc1
AC50 [8]: 2.43 µM (active)
EC50 [9]: > 29.9 µM (inactive)
IC50 [10]: 5.68 µM (active)

O=[N+]([O-])c1ccc(Nc2nc(Cl)nc(NCCO)n2)cc1
EC50 [11]: 4.63 µM (active)

COc1ccc(NC(=O)CSc2ccc([N+](=O)[O-])cc2)cc1S(=O)(=O)N1CCOCC1
IC50 [12]: > 66 µM (inactive)
IC50 [13]: > 66 µM (inactive)
AC50 [14]: 24.7 µM (active)

CN(CC(=O)NC1CCN(Cc2ccccc2)CC1)S(=O)(=O)c1ccc(Cl)cc1
EC50 [15]: > 20 µM (inactive)

CC(Sc1nc(-c2ccccc2)cc(C(F)(F)F)n1)C(=O)N1CCOCC1 (stereo not given)
EC50 [6]: 43.5 nM (active)
EC50 [16]: 0.0143 µM (active)

O=C(Nc1cccnc1)c1ccc(COc2ccccc2Br)cc1
IC50 [17]: 4.17 µM (active)
EC50 [18]: > 29.9 µM (inactive)
EC50 [19]: > 29.9 µM (inactive)
IC50 [20]: > 29.9 µM (inactive)

O=C(NCCc1ccccc1)C(=O)NCC1OCCN1S(=O)(=O)c1ccc2c(c1)OCCO2 (stereo not given)
EC50 [21]: 5.13 µM (active)
EC50 [22]: > 29.9 µM (inactive)
IC50 [23]: 8.98 µM (active)
IC50 [24]: > 29.9 µM (inactive)

COc1cc(/C=C(\CC(=O)O)c2nc3ccccc3s2)ccc1OCC(=O)Nc1ccccc1F
AC50 [25]: 58.5 µM (active)

CN(C)c1ccc(/C=N/N(CCO)C2=NS(=O)(=O)c3ccccc32)cc1
IC50 [26]: 9.4 µM (active)
AC50 [27]: 1 µM (active)
IC50 [28]: 8.93 µM (active)
IC50 [29]: 6.94 µM (active)

CN1/C(=C/C=C/c2n(C)c3cc([N+](=O)[O-])c([N+](=O)[O-])cc3[n+]2C)C(C)(C)c2ccccc21
IC50 [30]: 42.2 µM (inactive)
AC50 [31]: 18.4 µM (active)
IC50 [32]: 20.1 µM (inactive)
IC50 [33]: 6.17 µM (active)

CC[C@@]1(c2ccccc2)C(=O)N(C(=O)OC(C)C)N1C(=O)OC(C)C
IC50 [34]: 0.13 µM (active)

C[C@H](CO)N1C[C@H](C)[C@@H](CN(C)Cc2ccc(Cl)c(Cl)c2)Oc2c(NC(=O)Nc3ccc(C(F)(F)F)cc3)cccc2C1=O
AC50 [35]: 3.08 µM (active)
AC50 [36]: 10.2 µM (active)

Nc1cc(N)cc(C(=O)c2ccccc2)c1
IC50 [37]: 10.4 µM (active)
IC50 [38]: 13.8 µM (active)

COC(=O)C[C@H]1C[C@H]2c3cc(NC(=O)CN(C)C)ccc3O[C@H]2[C@H](CO)O1
AbsAC35 [39]: 110.27 µM
